Measured values: the supplement of paper PMC6045584
± gives the standard deviation of the averaged measurements.

What was measured:
CANERTINIB = compound: C=CC(=O)Nc1cc2c(Nc3ccc(F)c(Cl)c3)ncnc2cc1OCCCN1CCOCC1 [CANERTINIB]; assay: surviving fraction relative to DMSO-only wells; higher = less growth inhibition; details: exposure time: 5 days
How it was run: (§1)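 At 250–500 cells per well in 384-well plates, log-phase tumour cell lines were seeded and, 24 hours on, exposed continuously for five days to inhibitors at 0.5, 1, 5, 10, 50, 100, 500 and 1000 nM. Viability readout was CellTiter-Glo luminescence, reported as surviving fraction normalised to the median of DMSO-only wells.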

SNX-5422 = compound: CC1(C)CC(=O)c2c(C(F)(F)F)nn(-c3ccc(C(N)=O)c(N[C@H]4CC[C@H](OC(=O)CN)CC4)c3)c2C1 [SNX-5422]; assay: as above; details: exposure time: 5 days
How it was run: as §1

Test System | surviving fraction (CANERTINIB; 0.5 nM) | surviving fraction (CANERTINIB; 1 nM) | surviving fraction (CANERTINIB; 5 nM) | surviving fraction (CANERTINIB; 10 nM) | surviving fraction (CANERTINIB; 50 nM) | surviving fraction (CANERTINIB; 100 nM) | surviving fraction (CANERTINIB; 500 nM) | surviving fraction (CANERTINIB; 1000 nM) | surviving fraction (SNX-5422; 0.5 nM) | surviving fraction (SNX-5422; 1 nM) | surviving fraction (SNX-5422; 5 nM) | surviving fraction (SNX-5422; 10 nM) | surviving fraction (SNX-5422; 50 nM) | surviving fraction (SNX-5422; 100 nM) | surviving fraction (SNX-5422; 500 nM) | surviving fraction (SNX-5422; 1000 nM)
BT549 BREAST | 0.752 ± 0.037 | 0.886 ± 0.18 | 0.832 ± 0.08 | 0.808 ± 0.042 | 0.937 ± 0.18 | 1.08 ± 0.052 | 0.811 ± 0.072 | 0.47 ± 0.058 | 1.1 ± 0.22 | 0.861 ± 0.11 | 1.19 ± 0.077 | 1.05 ± 0.11 | 0.216 ± 0.02 | 0.187 ± 0.059 | 0.0503 ± 0.011 | 0.0473 ± 0.0074
C33A CERVIX | 1.08 ± 0.039 | 1 ± 0.057 | 1.37 ± 0.12 | 1.04 ± 0.11 | 1.1 ± 0.015 | 0.84 ± 0.025 | 0.578 ± 0.044 | 0.349 ± 0.006 | 1.03 ± 0.086 | 0.977 ± 0.073 | 1.03 ± 0.048 | 1.01 ± 0.069 | 0.316 ± 0.025 | 0.208 ± 0.086 | 0.056 ± 0.022 | 0.0593 ± 0.025
MDAMB157 BREAST | 0.847 ± 0.035 | 0.86 ± 0.088 | 0.858 ± 0.048 | 0.936 ± 0.049 | 0.921 ± 0.067 | 0.844 ± 0.089 | 0.753 ± 0.013 | 0.658 ± 0.051 | 0.999 ± 0.11 | 0.958 ± 0.067 | 0.941 ± 0.059 | 1.11 ± 0.043 | 0.575 ± 0.12 | 0.266 ± 0.06 | 0.258 ± 0.043 | 0.191 ± 0.01
NCIH441 LUNG | 0.951 ± 0.059 | 1.02 ± 0.02 | 1.01 ± 0.029 | 1.03 ± 0.07 | 0.918 ± 0.1 | 0.923 ± 0.0095 | 0.736 ± 0.098 | 0.635 ± 0.086 | 0.996 ± 0.029 | 0.976 ± 0.036 | 0.972 ± 0.076 | 1.03 ± 0.062 | 0.748 ± 0.093 | 0.748 ± 0.062 | 0.365 ± 0.04 | 0.324 ± 0.019
HCC38 BREAST | 1.01 ± 0.11 | 1.07 ± 0.18 | 1.08 ± 0.24 | 1.05 ± 0.082 | 1.19 ± 0.17 | 1.18 ± 0.12 | 0.948 ± 0.1 | 0.864 ± 0.16 | 1.19 ± 0.18 | 1.09 ± 0.094 | 1.06 ± 0.19 | 1.01 ± 0.15 | 0.219 ± 0.053 | 0.26 ± 0.027 | 0.0927 ± 0.0074 | 0.0897 ± 0.017
BT20 BREAST | 0.691 ± 0.0098 | 0.712 ± 0.017 | 0.654 ± 0.075 | 0.609 ± 0.058 | 0.908 ± 0.035 | 0.899 ± 0.084 | 0.82 ± 0.057 | 0.824 ± 0.069 | 1.14 ± 0.047 | 1.1 ± 0.088 | 1.14 ± 0.05 | 1.094 ± 0.0083 | 0.738 ± 0.039 | 0.411 ± 0.063 | 0.329 ± 0.046 | 0.298 ± 0.052
SCC90 HEADNECK | 0.781 ± 0.13 | 0.793 ± 0.056 | 0.787 ± 0.018 | 0.737 ± 0.064 | 0.656 ± 0.075 | 0.564 ± 0.065 | 0.428 ± 0.021 | 0.335 ± 0.051 | 1.08 ± 0.089 | 1.08 ± 0.071 | 1.12 ± 0.1 | 1.16 ± 0.077 | 0.225 ± 0.08 | 0.155 ± 0.047 | 0.0307 ± 0.0061 | 0.0383 ± 0.0015
HCT15 LARGE INTESTINE | 0.868 ± 0.082 | 0.78 ± 0.053 | 0.775 ± 0.11 | 0.79 ± 0.064 | 0.852 ± 0.035 | 0.869 ± 0.068 | 0.843 ± 0.079 | 0.841 ± 0.076 | 1.05 ± 0.018 | 1.03 ± 0.029 | 1.06 ± 0.051 | 1.09 ± 0.022 | 0.77 ± 0.12 | 0.303 ± 0.03 | 0.0797 ± 0.0015 | 0.074 ± 0.009
H23 LUNG | 0.908 ± 0.038 | 0.86 ± 0.051 | 0.742 ± 0.031 | 0.553 ± 0.032 | 0.403 ± 0.035 | 0.3637 ± 0.0035 | 0.29 ± 0.011 | 0.252 ± 0.014 | 1.01 ± 0.051 | 1.04 ± 0.023 | 1.06 ± 0.057 | 1.04 ± 0.052 | 0.43 ± 0.0053 | 0.268 ± 0.013 | 0.037 ± 0.0027 | 0.0373 ± 0.0035
SCC47 HEADNECK | 0.828 ± 0.025 | 0.921 ± 0.088 | 0.881 ± 0.048 | 0.889 ± 0.028 | 0.9577 ± 0.0083 | 0.805 ± 0.032 | 0.681 ± 0.015 | 0.432 ± 0.044 | 1.09 ± 0.084 | 1.17 ± 0.07 | 1.14 ± 0.069 | 1.12 ± 0.048 | 0.483 ± 0.0098 | 0.184 ± 0.015 | 0.0747 ± 0.0047 | 0.071 ± 0.0027
